Experimental data as given in PMC12493155, “A yeast-based in vivo assay complements in vitro and in silico approaches to characterize sterol-binding by Saccharomyces cerevisiae Lam/Ltc proteins” (The Journal of Biological Chemistry, 2025).
Where a name gives a salt, the structure may show the parent alone.

How the values were obtained:
Osh4 [1] = target: T1, Osh4 (Saccharomyces cerevisiae, UniProt P35844); assay: Microscale thermophoresis (MST) ligand binding; details: Osh4, pH 7.5, 50 nM protein
T1 construct: made in house; host or cells: E. coli BL21
Method: (§1) This polyhistidine-tagged protein is site-specific fluorescently labeled (RED-tris-NTA, green star). The labeled protein is incubated with varying concentrations of ligand, loaded into glass capillaries, the capillaries are locally heated with an infrared (IR) laser, generating a temperature gradient, and the rate of temperature-induced diffusion of the ligand-bound protein was recorded and plotted as a function of ligand concentration. B, sterol binding by Pry1, NPC2, Osh4, and STARD1 measured by MST. […] Binding by Pry1, Osh4 was assessed at pH 7.5, STARD1 at pH 8.5, and NPC2 binding affinity was determined at pH 5.5. […] Data shown in panelB represent the mean ± SD of three independent experiments. MST, microscale thermophoresis; NPC2, Niemann-Pick type C2; Pry, pathogen-related in yeast; STARD1, steroidogenic acute regulatory protein 1.
(§2) Purified proteins were fluorescently labeled using the RED-tris-NTA His tag protein labeling kit (NanoTemper Technologies) ([52]). […] Binding by Pry1, Osh4, and the StARkin domains was assessed at pH 7.5, STARD1 at pH 8.5, and NPC2 binding affinity was determined at pH 5.5.
(§3) Samples were centrifuged for 5 min at 15,000g at 4 °C and loaded into standard MST capillaries. The dissociation constant Kd was determined by plotting the fraction of ligand-bound protein against the logarithm of the ligand concentrations, using Prism software (GraphPad).

Pry1 [2] = target: T2, Pry1 (Saccharomyces cerevisiae, UniProt P47032); assay: Microscale thermophoresis (MST) ligand binding; details: Pry1, pH 7.5, 50 nM protein
T2 construct: made in house; host or cells: E. coli BL21
T2 sequence (P47032 20-299): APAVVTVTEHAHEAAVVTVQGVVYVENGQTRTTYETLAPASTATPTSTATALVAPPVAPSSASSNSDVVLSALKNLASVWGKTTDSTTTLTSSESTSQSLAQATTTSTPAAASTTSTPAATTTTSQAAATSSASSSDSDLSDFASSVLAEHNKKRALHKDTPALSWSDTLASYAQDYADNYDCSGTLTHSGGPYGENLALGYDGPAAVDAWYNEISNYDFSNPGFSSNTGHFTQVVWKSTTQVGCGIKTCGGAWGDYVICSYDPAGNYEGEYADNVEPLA
Method: as §1, §2, §3

STARD1 = target: T3, STARD1 (Homo sapiens, UniProt P49675); assay: Microscale thermophoresis (MST) ligand binding; details: STARD1, pH 8.5, 50 nM protein
T3 construct: made in house; host or cells: E. coli BL21
T3 sequence (P49675 64-285): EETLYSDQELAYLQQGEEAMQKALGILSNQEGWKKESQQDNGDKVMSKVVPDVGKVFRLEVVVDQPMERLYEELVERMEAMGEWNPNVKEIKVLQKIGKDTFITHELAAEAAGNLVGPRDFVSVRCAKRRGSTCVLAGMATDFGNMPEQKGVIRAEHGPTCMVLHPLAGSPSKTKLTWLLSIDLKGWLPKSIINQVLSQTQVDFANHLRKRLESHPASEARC
Method: as §1, §2, §3

Lam5 (ΔTMD) = target: T4, Lam5 (ΔTMD) (Saccharomyces cerevisiae, UniProt P43560); assay: Microscale thermophoresis (MST) ligand binding; details: soluble Lam5 (ΔTMD)
T4 construct: Lam5 (1–633 aa), and Lam6 (1–621 aa); made in house; host or cells: E. coli BL21
T4 sequence (P43560 1-633): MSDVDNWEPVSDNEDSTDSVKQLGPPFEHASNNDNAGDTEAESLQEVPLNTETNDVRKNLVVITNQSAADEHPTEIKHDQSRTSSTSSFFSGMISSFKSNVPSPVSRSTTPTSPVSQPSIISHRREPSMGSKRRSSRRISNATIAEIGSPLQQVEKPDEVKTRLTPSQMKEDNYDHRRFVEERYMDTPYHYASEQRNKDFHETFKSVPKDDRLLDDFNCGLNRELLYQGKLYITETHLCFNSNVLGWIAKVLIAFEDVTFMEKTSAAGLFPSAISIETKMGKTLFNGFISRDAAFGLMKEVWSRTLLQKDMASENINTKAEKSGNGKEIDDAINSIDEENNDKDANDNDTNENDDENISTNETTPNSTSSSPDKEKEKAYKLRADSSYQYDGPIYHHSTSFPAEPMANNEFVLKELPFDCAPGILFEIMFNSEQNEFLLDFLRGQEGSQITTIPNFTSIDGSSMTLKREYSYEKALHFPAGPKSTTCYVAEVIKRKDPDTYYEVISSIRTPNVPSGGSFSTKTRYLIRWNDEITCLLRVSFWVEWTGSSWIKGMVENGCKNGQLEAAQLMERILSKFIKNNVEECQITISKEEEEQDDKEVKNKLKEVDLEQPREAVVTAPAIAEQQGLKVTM
Description: (§4) To corroborate these in vivo findings, we expressed soluble versions (ΔTMD) of Lam5 and Lam6 as polyhistidine-tagged proteins and assessed their sterol binding capacity using MST.

Lam6 (ΔTMD) = target: T5, Lam6 (ΔTMD) (Saccharomyces cerevisiae, UniProt Q08001); assay: Microscale thermophoresis (MST) ligand binding; details: soluble Lam6 (ΔTMD)
T5 construct: Lam5 (1–633 aa), and Lam6 (1–621 aa); made in house; host or cells: E. coli BL21
T5 sequence (Q08001 1-621): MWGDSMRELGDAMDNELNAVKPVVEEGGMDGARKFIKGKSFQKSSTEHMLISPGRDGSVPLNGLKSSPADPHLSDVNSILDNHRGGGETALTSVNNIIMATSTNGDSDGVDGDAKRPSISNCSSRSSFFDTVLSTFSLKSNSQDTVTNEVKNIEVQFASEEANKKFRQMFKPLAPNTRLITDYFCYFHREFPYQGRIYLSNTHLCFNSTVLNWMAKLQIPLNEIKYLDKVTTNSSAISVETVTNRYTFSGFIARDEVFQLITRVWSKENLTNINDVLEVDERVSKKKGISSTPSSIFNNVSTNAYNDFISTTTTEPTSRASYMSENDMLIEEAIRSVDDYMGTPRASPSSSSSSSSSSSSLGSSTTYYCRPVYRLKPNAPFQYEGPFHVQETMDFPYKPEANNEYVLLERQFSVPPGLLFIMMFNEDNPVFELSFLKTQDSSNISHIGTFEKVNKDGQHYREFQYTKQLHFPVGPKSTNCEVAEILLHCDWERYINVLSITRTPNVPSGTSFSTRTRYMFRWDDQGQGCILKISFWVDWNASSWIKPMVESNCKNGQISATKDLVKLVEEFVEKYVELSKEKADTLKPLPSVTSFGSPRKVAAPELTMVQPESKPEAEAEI
Description: as §4

Lam4^StARkin1 = target: T6, Lam4^StARkin1 (Saccharomyces cerevisiae, UniProt P38800); assay: Microscale thermophoresis (MST) ligand binding; details: Lam4^StARkin1, pH 7.5
T6 construct: both StARkin domains of Lam4 (StARkin1, 758–930 aa, 20.3 kDa); made in house; host or cells: E. coli BL21
Description: (§5) To further characterize these domains, we expressed and purified Ysp1^StARkin, Sip3^StARkin, Lam4^StARkin1, and Lam4^StARkin2 from bacterial cells and assessed their sterol-binding affinities using MST.

Lam4^StARkin2 = target: T7, Lam4^StARkin2 (Saccharomyces cerevisiae, UniProt P38800); assay: Microscale thermophoresis (MST) ligand binding; details: Lam4^StARkin2, pH 7.5
T7 construct: StARkin2, 967–1139 aa, 34.6 kDa; made in house; host or cells: E. coli BL21
Description: as §5

Ysp1^StARkin = target: T8, Ysp1^StARkin (Saccharomyces cerevisiae, UniProt P38851); assay: Microscale thermophoresis (MST) ligand binding; details: pH 7.5
T8 construct: Ysp1^StARkin (765–978 aa, 26.9 kDa); made in house; host or cells: E. coli BL21
T8 sequence (P38851 765-978): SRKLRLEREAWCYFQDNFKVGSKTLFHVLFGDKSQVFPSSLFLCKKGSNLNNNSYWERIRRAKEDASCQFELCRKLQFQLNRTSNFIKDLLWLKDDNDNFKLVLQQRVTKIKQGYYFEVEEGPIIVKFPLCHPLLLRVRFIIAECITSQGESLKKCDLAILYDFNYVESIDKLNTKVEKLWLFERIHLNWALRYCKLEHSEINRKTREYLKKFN
Description: as §5

Sip3^StARkin = target: T9, Sip3^StARkin (Saccharomyces cerevisiae, UniProt P38717); assay: biochemical; format: binding
T9 construct: Sip3^StARkin (733–1002 aa, 32.5 kDa); made in house; host or cells: Lactococcus lactis DML1
T9 sequence (P38717 733-1002): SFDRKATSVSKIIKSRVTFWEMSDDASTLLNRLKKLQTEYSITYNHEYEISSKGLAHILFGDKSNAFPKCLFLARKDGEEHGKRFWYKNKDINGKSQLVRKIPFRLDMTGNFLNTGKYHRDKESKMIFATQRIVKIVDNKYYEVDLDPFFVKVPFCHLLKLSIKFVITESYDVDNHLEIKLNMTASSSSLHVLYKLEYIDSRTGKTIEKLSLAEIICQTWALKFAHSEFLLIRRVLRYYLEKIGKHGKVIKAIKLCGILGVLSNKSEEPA
Method: as §5, §2, §3

NPC2 = target: T10, NPC2 (Homo sapiens, UniProt P61916); assay: In vitro radioligand binding assay with [3H]-cholesterol; details: NPC2, pH 5.5, 100 pmol protein
T10 construct: made in house; host or cells: E. coli
T10 sequence (P61916 20-151): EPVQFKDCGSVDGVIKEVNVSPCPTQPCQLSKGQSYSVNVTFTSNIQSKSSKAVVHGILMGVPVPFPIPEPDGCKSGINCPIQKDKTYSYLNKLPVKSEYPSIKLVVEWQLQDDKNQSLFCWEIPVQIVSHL
Description: (§6) To validate these in vivo findings with independent in vitro approaches, Pry1, NPC2, Osh4, and STARD1 were expressed as C terminally polyhistidine-tagged proteins in Escherichia coli and purified using Ni^2+-NTA agarose beads. […] Protein-bound radioligand was separated from unbound ligand by absorption to an ion-exchange matrix ([13], [51]) (Fig. 2A).
(§7) Schematic representation of the workflow of the in vitro lipid binding assay. Purified proteins (blue, 100 pmol), different concentrations of radiolabeled [^3H]-cholesterol (green, 0–400 pmol) are incubated together to allow binding. Proteins were separated from unbound ligand by adsorption to an ion exchange matrix (gray), followed by washing steps. The protein-bound ligand is then eluted and quantified by liquid scintillation counting. Nonspecific binding is assessed in parallel by performing the assay in the absence of protein.
(§8) The in vitro radioligand binding assay was performed essentially as previously described ([13], [39]). Purified proteins (100 pmol) were incubated with 100 to 400 pmol of [^3H]-cholesterol (1 mCi/ml, specific activity 50 Ci/mmol; American Radiolabeled Chemicals, Inc), in binding buffer for 1 h at 30 °C. The pH of the binding buffer was adjusted based on the isoelectric point of the protein: for Pry1 and Osh4, 20 mM Tris (pH 7.5), 30 mM NaCl; for STARD1, the same buffer at pH 8.5; and for NPC2, 20 mM potassium acetate (pH 5.5), 30 mM NaCl.
(§9) Proteins were then separated from unbound ligand by adsorption to SP Sepharose (GE Healthcare) beads for NPC2, and to Q Sepharose beads (GE Healthcare) beads for all other proteins. Beads were washed and proteins were eluted with binding buffer containing 1 M NaCl. Protein-bound radioligand was quantified by scintillation counting. Ion exchange beads without protein were used to define nonspecific binding. Data were analyzed using Prism software (GraphPad) and are presented as the mean ± SD from three independent experiments.

Osh4 [3] = target: T1, Osh4; assay: as above; details: Osh4, pH 7.5, 100 pmol protein
Description: as §6, §7, §8, §9

Pry1 [4] = target: T2, Pry1; assay: as above; details: Pry1, pH 7.5, 100 pmol protein
Description: as §6, §7, §8, §9

StARkin domain of Lam6 = target: T11, StARkin domain of Lam6 (Saccharomyces cerevisiae, UniProt Q08001); assay: MST protein-liposome binding; details: Fig. 7F, StARkin domain of Lam6, DOPC/DOPE 80/20 mol% liposomes
T11 construct: Lam6^StARkin (401–579 aa, 22 kDa); made in house; host or cells: Lactococcus lactis DML1
T11 sequence (Q08001 401-579): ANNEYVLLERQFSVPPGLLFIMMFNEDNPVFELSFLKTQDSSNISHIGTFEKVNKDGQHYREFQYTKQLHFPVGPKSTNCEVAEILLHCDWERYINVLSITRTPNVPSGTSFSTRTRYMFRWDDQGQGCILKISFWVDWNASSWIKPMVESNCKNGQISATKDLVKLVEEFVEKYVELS
Method: To test whether the GRAM domain of Lam6 could function as a coincidence detector recognizing both PS and ergosterol simultaneously, as observed with the GRAM domain of Aster-B/GRAM1b, we assessed liposome binding by isolated GRAM and StARkin domains ([58], [60]).
Lipids were dried from chloroform stock solutions using a rotary evaporator or under a gentle nitrogen gas stream. The dried lipid film was resuspended in 1 ml liposome buffer (25 mM Tris (pH 7.5), 50 mM NaCl) to a final concentration of 2 mM phospholipids. The phospholipid suspension was then subjected to ten freeze-thaw cycles, alternating between liquid nitrogen and a 55 °C water bath.
The resulting multilamellar liposomes were extruded nineteen times through a polycarbonate filter of 0.8 μm pore size to generate large unilamellar vesicles.

T7 sequence (P38800 967-1139): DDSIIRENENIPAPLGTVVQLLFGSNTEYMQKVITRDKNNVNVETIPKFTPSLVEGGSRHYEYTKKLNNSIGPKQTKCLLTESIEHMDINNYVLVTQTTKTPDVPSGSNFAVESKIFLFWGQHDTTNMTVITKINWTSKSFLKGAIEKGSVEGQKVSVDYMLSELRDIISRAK
T6 sequence (P38800 758-930): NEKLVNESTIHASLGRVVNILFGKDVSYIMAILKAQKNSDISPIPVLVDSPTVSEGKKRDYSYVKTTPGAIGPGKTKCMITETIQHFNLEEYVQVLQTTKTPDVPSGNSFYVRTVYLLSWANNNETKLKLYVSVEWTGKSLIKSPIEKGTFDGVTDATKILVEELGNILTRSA

CC(C)CCC[C@@H](C)[C@H]1CC[C@H]2[C@@H]3CC=C4C[C@@H](OS(=O)(=O)O)CC[C@]4(C)[C@H]3CC[C@]12C [cholesterol sulfate]
Kd (Osh4 [1]): 1690 nM | Kd (Pry1 [2]): 1750 nM | Kd (STARD1): 64 nM | Kd (Lam5 (ΔTMD)): 290 nM | Kd (Lam6 (ΔTMD)): 90 nM | Kd (Lam4^StARkin1): 71 nM | Kd (Lam4^StARkin2): 340 nM | Kd (Ysp1^StARkin): 47 nM | Kd (Sip3^StARkin): 530 nM

CC(C)CCC[C@@H](C)[C@H]1CC[C@H]2[C@@H]3CC=C4C[C@@H](O)CC[C@]4(C)[C@H]3CC[C@]12C [cholesterol]
Kd (NPC2): 1600 nM | Kd (Osh4 [3]): 2300 nM | Kd (Pry1 [4]): 2400 nM

CC(C)[C@@H](C)/C=C/[C@@H](C)[C@H]1CC[C@H]2C3=CC=C4C[C@@H](O)CC[C@]4(C)[C@H]3CC[C@]12C [ergosterol]
Kd (StARkin domain of Lam6): 8600 ± 3400 nM
